Data set [1] addresses T1, Nuclear receptor subfamily 1 group I member 2 (Homo sapiens, UniProt O75469).
T1 sequence (O75469 whole entry): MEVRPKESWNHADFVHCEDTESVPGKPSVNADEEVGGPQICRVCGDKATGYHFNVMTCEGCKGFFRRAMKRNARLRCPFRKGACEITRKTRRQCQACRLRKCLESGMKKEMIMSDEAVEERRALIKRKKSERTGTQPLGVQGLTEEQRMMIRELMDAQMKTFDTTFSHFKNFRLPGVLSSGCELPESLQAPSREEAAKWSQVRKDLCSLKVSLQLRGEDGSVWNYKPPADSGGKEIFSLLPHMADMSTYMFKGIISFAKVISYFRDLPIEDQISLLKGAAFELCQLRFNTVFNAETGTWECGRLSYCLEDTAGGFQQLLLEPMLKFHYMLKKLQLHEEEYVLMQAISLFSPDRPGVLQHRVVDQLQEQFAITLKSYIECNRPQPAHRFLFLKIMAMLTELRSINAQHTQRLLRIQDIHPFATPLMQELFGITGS
Nature of the data set: Activation of PXR in human Hu1108 hepatocytes assessed as effect on CYP3A-mediated testosterone 6beta-hydroxylation at 10 to 50 uM after 24 hrs by HPLC analysis. The format is ADME, cell-based, Hepatocyte.

Data set [2] deals with T2, Nuclear receptor subfamily 1 group I member 3 (Homo sapiens, UniProt Q14994).
T2 sequence (Q14994 whole entry): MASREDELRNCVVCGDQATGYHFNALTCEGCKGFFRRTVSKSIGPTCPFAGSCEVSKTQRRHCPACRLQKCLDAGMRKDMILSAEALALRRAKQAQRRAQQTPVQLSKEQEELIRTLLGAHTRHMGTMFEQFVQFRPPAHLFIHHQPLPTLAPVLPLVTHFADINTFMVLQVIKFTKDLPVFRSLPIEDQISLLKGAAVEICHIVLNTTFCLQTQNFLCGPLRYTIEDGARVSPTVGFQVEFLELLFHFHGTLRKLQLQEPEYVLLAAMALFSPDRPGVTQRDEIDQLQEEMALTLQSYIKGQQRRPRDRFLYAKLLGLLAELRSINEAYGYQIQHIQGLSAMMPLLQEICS
In words: Activation of CAR in human Hu1043 hepatocytes assessed as increase in CYP2B6-mediated bupropion hydroxylation at 10 to 60 uM after 24 hrs by LC-MS analysis. The format is ADME, cell-based, Hepatocyte.

Data set [3] addresses T3, Nuclear receptor subfamily 1 group I member 3 (Rattus norvegicus, UniProt Q9QUS1).
T3 sequence (Q9QUS1 whole entry): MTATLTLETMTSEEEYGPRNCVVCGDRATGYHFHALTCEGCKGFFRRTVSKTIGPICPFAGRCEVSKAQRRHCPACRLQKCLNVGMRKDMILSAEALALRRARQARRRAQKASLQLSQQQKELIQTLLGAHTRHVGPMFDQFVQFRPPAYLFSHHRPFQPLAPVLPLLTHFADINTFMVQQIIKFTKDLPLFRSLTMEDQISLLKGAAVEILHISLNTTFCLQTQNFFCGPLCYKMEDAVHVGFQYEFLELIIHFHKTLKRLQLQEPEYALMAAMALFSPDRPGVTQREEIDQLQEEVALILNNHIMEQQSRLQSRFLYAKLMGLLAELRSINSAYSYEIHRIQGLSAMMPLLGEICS
Nature of the data set: Activation of rat CAR expressed in rat hepatocytes coexpressing CYP2B1 at 100 uM after 24 hrs by dual luciferase reporter gene assay relative to control. The format is ADME, cell-based, Hepatocyte. The following applies: hepatocytes, 24 h, 100 µM.

Data set [4] deals with T3, Nuclear receptor subfamily 1 group I member 3. Nature of the data set: Activation of CAR in rat hepatocytes assessed as increase in CYP2B-mediated benzyloxyresorufin O-dealkylation at 30 uM after 24 hrs by spectrofluorometric analysis relative to phenobarbital. Type of data set: ADME, cell-based, Hepatocyte.
The target is the same in data set [5]. Nature of the data set: Activation of CAR in rat hepatocytes assessed as effect on CYP2B1 mRNA expression at 1 uM after 24 hrs by RT-PCR analysis. The format is ADME, cell-based, Hepatocyte.
For data set [6] the target is unchanged. In words: Activation of CAR in rat hepatocytes assessed as upregulation of CYP2B1 mRNA expression at 30 uM after 24 hrs by RT-PCR analysis relative to phenobarbital. The format is ADME, cell-based, Hepatocyte.
For data set [7] the target is unchanged. Nature of the data set: Activation of rat CAR expressed in rat hepatocytes coexpressing CYP2B1 at 0.1 to 10 uM after 24 hrs by dual luciferase reporter gene assay. Type of data set: ADME, cell-based, Hepatocyte. For orientation: In a reporter assay the amount or activity of a reporter protein is the signal.
In data set [8] the target is T2, Nuclear receptor subfamily 1 group I member 3. In words: Activation of CAR in human Hu1043 hepatocytes assessed as effect on CYP2B6 mRNA expression at 10 to 60 uM after 24 hrs by RT-PCR analysis. The format is ADME, cell-based, Hepatocyte.
The target in data set [9] is T4, Nuclear receptor subfamily 1 group I member 2 (Rattus norvegicus, UniProt Q9R1A7).
T4 sequence (Q9R1A7 whole entry): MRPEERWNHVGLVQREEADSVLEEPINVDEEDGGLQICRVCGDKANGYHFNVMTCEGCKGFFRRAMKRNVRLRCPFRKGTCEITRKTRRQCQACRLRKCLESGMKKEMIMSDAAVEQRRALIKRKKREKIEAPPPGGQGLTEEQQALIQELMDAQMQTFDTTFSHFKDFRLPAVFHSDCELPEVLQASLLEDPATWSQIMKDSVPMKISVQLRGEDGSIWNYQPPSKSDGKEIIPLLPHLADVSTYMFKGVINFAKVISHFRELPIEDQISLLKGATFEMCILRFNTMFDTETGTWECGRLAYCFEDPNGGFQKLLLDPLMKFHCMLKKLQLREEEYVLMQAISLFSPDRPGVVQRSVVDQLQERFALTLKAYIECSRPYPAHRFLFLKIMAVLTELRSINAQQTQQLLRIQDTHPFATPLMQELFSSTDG
In words: Activation of PXR in rat hepatocytes assessed as effect on CYP3A-mediated testosterone 6beta-hydroxylation at 1 to 30 uM after 24 hrs by HPLC analysis. Type of data set: ADME, cell-based, Hepatocyte.

Data set [10] concerns PXR mRNA. Nature of the data set: Effect on PXR mRNA expression in rat hepatocytes at 1 uM by RT-PCR analysis relative to control. Type of data set: ADME, cell-based, Hepatocyte. The following applies: read-out: FC.
Data set [11] deals with T4, Nuclear receptor subfamily 1 group I member 2. Nature of the data set: Activation of rat PXR expressed in rat hepatocytes coexpressing CYP3A4 at 100 uM after 24 hrs by dual luciferase reporter gene assay. Type of data set: ADME, cell-based, Hepatocyte.
For data set [12], the target named is T3, Nuclear receptor subfamily 1 group I member 3. In words: Activation of CAR in rat hepatocytes assessed as increase in CYP2B-mediated benzyloxyresorufin O-dealkylation at 1 uM after 24 hrs by spectrofluorometric analysis relative to phenobarbital. Type of data set: ADME, cell-based, Hepatocyte.
The target in data set [13] is T1, Nuclear receptor subfamily 1 group I member 2. In words: Antagonist activity at human PXR expressed in human HepG2 cells coexpressing CYP3A4 assessed as inhibition of rifampicin-induced receptor activation up to 100 uM after 24 hrs by dual luciferase reporter gene assay. Type of data set: ADME, cell-based. The following applies: hepg2, 24 h.
The target is the same in data set [14]. Nature of the data set: Activation of PXR in human Hu1043 hepatocytes assessed as effect on CYP3A-mediated testosterone 6beta-hydroxylation at 10 to 60 uM after 24 hrs by HPLC analysis. Type of data set: ADME, cell-based, Hepatocyte.
The target is the same in data set [15]. Nature of the data set: Activation of PXR in human Hu1043 hepatocytes assessed as effect on CYP3A4 mRNA expression at 10 to 60 uM after 24 hrs by RT-PCR analysis. Type of data set: ADME, cell-based, Hepatocyte.
Data set [16] addresses T3, Nuclear receptor subfamily 1 group I member 3. Nature of the data set: Activation of rat CAR expressed in rat hepatocytes coexpressing CYP2B1 at 100 uM after 24 hrs by dual luciferase reporter gene assay relative to phenobarbital. Type of data set: ADME, cell-based, Hepatocyte.
For data set [17], the system named is CAR mRNA. Nature of the data set: Effect on CAR mRNA expression in rat hepatocytes at 10 uM by RT-PCR analysis relative to control. Type of data set: ADME, cell-based, Hepatocyte. As to conditions: read-out: FC; call rule not given here.
Data set [18] addresses T3, Nuclear receptor subfamily 1 group I member 3. Nature of the data set: Activation of rat CAR expressed in rat hepatocytes coexpressing CYP2B1 at 60 uM after 24 hrs by dual luciferase reporter gene assay relative to phenobarbital. The format is ADME, cell-based, Hepatocyte.

We go through one compound from ChEMBL document CHEMBL3526076, “Species-dependent and receptor-selective action of bilobalide on the function of constitutive androstane receptor and pregnane X receptor” (Drug Metab Dispos, 2012).

For `CC(C)(C)[C@]1(O)C[C@@H]2OC(=O)C[C@@]23C(=O)O[C@@H]2OC(=O)[C@H](O)[C@]213`, the Activity entry is recorded as “Not Active” in data set [1]; “Not Active” in data set [2]; “Active” in data set [3]; 83% in data set [4]; “Not Active” in [5]; 37% in data set [6]. In addition, the Activity entry in [7] was “Not Active”; in [8], “Not Active”; in data set [9], “Not Active”; in data set [11], “Not Active”; in data set [12] it was 30%; in data set [14], “Not Active”. For the same compound, the Activity result in [15] is given as “Not Active”; in data set [16] it was 115%; in data set [18], 176%. Besides, the fold induction at 1 µM in data set [10] came to 1.1. In data set [13], the “inhibition (INH)” value is on record as “Not Active”. The fold induction at 10 µM in data set [17] came to 1.1.
